Source: US4336263A, “1,4-Cycloalkano-oxazepines, salts thereof and analgesic uses thereof” (priority 1978, dated 1982)
Read-outs that look alike come from different tables or passages of the source.

Assays:
[1] = test system: female mice (NMRI strain); assay: animal or person; format: in vivo; conditions: for ED (100%): Mus musculus, 0.5 h; for ED (100%) / ED 100% (dose which increases the reaction time by 100%): 30 minutes after administration; for Q (enteral activity: quotient of ED 100% for intraperitoneal and oral administration): i.p. ED 100% / oral ED 100%, 30 min; for Maximum action, Δ% (increase in reaction time): maximum increase without fatalities
Method: (§1) The model used for testing the analgesic action was the tail flick test of D'AMOUR and SMITH (J. Pharmacol. 72 (1941), 74-79). In this experiment, the compounds to be tested were administered intraperitoneally or orally, as aqueous solutions (injection volume 10 ml/kg) to groups of 10 female mice (NMRI strain) weighing 20-22 g each.
(§2) Pain reactions are caused before, and 30 minutes after, the administration of the compound, by means of thermal irritation (the tail being exposed to focused heat radiation from a halogen lamp for at most 30 seconds).
(§3) The time until the tail is drawn out of the radiation zone by reflex action is measured, and taken as the reaction time. Its average value, for 670 untreated animals, is 6.5±0.29 sec.
(§4) Analgesic substances increase the reaction time, to an extent depending on the dose. There is a linear relationship between the logarithms of the doses (mg/kg) and of the relative increase in reaction time (Δ%), from which the dose, defined as the ED 100%, which doubles the reaction time can be calculated by means of regression analysis. For a radiation exposure period of at most 30 seconds, the maximum possible increase in the reaction time is about 360%.

[2] = acute lethal dose (LD 50) for intraperitoneal administration; format: in vivo; conditions: for Relative toxicity: Nefopam = 1.00
From the text: The comparatively low toxicity of the novel compounds can also be deduced from the acute lethal dose (LD 50) for intraperitoneal administration (Table 2). The LD 50 values are from about 90% to 240% higher than those of Nefopam.

in vivo = format: in vivo, mice (NMRI strain); conditions: mouse, in vivo, read-out: treated animals killed
Method: as §1, §2, §3, §4

[3] = ip, read-out: ED 100% (dose which increases the reaction time by 100%), intraperitoneal administration
[4] = po, read-out: ED 100% (dose which increases the reaction time by 100%), oral administration
[5] = intraperitoneal administration, Nefopam = 1.00
[6] = intraperitoneal administration, dose of maximum action
[7] = oral administration, Nefopam = 1.00
[8] = oral administration, dose of maximum action

Row | Structure (SMILES) | ED (100%) [1, 3] [mg/kg] | ED (100%) [1, 4] [mg/kg] | Q (enteral activity: quotient of ED 100% for intraperitoneal and oral administration) [1] | relative activity [1, 5] | Maximum action, mg/kg (dose) [1, 6] [mg/kg] | Maximum action, Δ% (increase in reaction time) ([1]; intraperitoneal administration) [%] | relative activity [1, 7] | Maximum action, mg/kg (dose) [1, 8] [mg/kg] | Maximum action, Δ% (increase in reaction time) ([1]; oral administration) [%] | Relative toxicity [2] | LD50 ([2]; in vivo, ip, read-out: LD 50) [mg/kg] | other results
1 | CN1CCO[C@]2(c3cccc(O)c3)CCCC[C@@H]2C1 (relative stereo) [Example 7, 4-Methyl-9a-(3-hydroxyphenyl)-perhydro-1,4-benzoxazepine] | 6.55 | 18.6 | 0.35 | 1.23 | 46.4 | 364 | 2.50 | 46.4 | 332 | 0.35 | 165 | 
2 | CC(=O)Oc1cccc([C@@]23CCCC[C@@H]2CN(C)CCO3)c1 (relative stereo) [Example 7 β, 4-Methyl-9a-(3-acetoxyphenyl)-perhydro-1,4-benzoxazepine] | 12.6 | 13.1 | 0.96 |  |  | 275 | 3.54 |  | 280 | 0.30 | 194 | Maximum action, mg/kg (dose) ([1]; mouse, in vivo, ip): 46.4 mg/kg; relative activity ([1]; mouse, in vivo, ip): 0.64; Maximum action, mg/kg (dose) ([1]; mouse, in vivo, po): 100 mg/kg
3 | COc1cccc([C@@]23CCCC[C@@H]2CN(C)CCO3)c1 (relative stereo) [Example 3, 4-methyl-9a-(3-methoxyphenyl)-perhydro-1,4-benzoxazepine] | 11.4 | 17 | 0.67 | 0.71 | 46.4 | 416 | 2.73 | 100 | 397 | 0.52 | 110 | 
4 | COc1cccc([C@@]23CCCC[C@@H]2CN(C)CCO3)c1 (single isomer, unassigned) [9 (+), (+)-4-Methyl-9a-(3-methoxyphenyl)-perhydro-1,4-benzoxazepine] |  |  | 0.71 | 0.48 | 46.4 | 249 | 1.97 | 100 | 370 | 0.52 |  | ED 100% (dose which increases the reaction time by 100%) ([1]; intraperitoneal administration): 16.7 mg/kg; ED 100% (dose which increases the reaction time by 100%) ([1]; oral administration): 23.5 mg/kg; LD50 [2]: 110 mg/kg
5 | COc1cccc([C@@]23CCC[C@@H]2CN(C)CCO3)c1 (relative stereo) [Example 6] | 4.66 | 9.49 | 0.49 | 1.73 | 46.4 | 380 | 4.89 | 46.4 | 364 | 0.45 | 127 | 
6 | CN1CCOC(c2ccccc2)c2ccccc2C1 (centres unmarked) [Nefopam, 5-methyl-1-phenyl-3,4,5,6-tetrahydro-1H-benz[f]-2,5-oxazocine, reference compound] |  |  | 0.17 |  | 21.5 | 192 | 1.00 | 46.4 | 93 | 1.00 | 57.3 | mortality (in vivo; ip, 46.4 mg/kg administered intraperitoneally): 60%; mortality (in vivo; po, 100 mg/kg administered orally): 60%; animals died ([1]; 46.4 mg/kg intraperitoneally): 6 out of 10 animals; animals died ([1]; 100 mg/kg orally): 6 out of 10 animals; ED (100%) ([1]; oral administration, read-out: ED 100% (dose which increases the reaction time by 100%)): 46.4 mg/kg; ED (100%) ([1]; ip, intraperitoneal administration, read-out: ED 100% (dose which increases the reaction time by 100%)): 8.08 mg/kg
7 | COc1cccc([C@@]23CCCC[C@@H]2CN(C)CCO3)c1 (single isomer, unassigned) [9 (-), (-)-4-Methyl-9a-(3-methoxyphenyl)-perhydro-1,4-benzoxazepine] | 11 | 17.6 | 0.63 |  |  | 348 | 2.64 |  | 397 | 0.40 | 145 | Maximum action, mg/kg (dose) ([1]; mouse, in vivo, ip): 46.4 mg/kg; relative activity ([1]; mouse, in vivo, ip): 0.74; Maximum action, mg/kg (dose) ([1]; mouse, in vivo, po): 100 mg/kg
